According to ChEMBL document CHEMBL5247592, “Discovery of novel VEGFR-2-PROTAC degraders based on the localization of lysine residues via recruiting VHL for the treatment of gastric cancer” (Eur J Med Chem, 2022):
pIC50: −log10 of the molar value. Calls of active or inactive are those of the source. The calls are words filed in the database; no cut-off is given here.

Experiments:
[1] = biological target: T1, von Hippel-Lindau disease tumor suppressor/Vascular endothelial growth factor receptor 2 (Homo sapiens, UniProt P35968+P40337); test: PROTAC activity at VHL/VEGFR2 in human HGC-27 cells assessed as induction of VEGRF2 protein degradation at 10 uM incubated for 2 hrs by Western blot analysis; type: cell-based
[2] = biological target: Vascular endothelial growth factor receptor 2 (Homo sapiens, UniProt P35968); test: Inhibition of VEGFR2 (unknown origin) by caliper mobility shift assay
[3] = tested on: HGC-27; test: Antiproliferative activity against human HGC-27 cells assessed as inhibition of cell growth incubated for 72 hrs by MTT assay; type: functional, cell-based; conditions: HGC-27, 72 h
[4] = Cytotoxicity against HEK293T cells assessed as inhibition of cell growth incubated for 72 hrs by MTT assay; type: toxicity, cell-based, HEK-293T; conditions: human
[5] = Cytotoxicity against HUVEC cells assessed as inhibition of cell growth incubated for 72 hrs by MTT assay; type: toxicity, cell-based; conditions: human
[6] = Cytotoxicity against human GES1 cells assessed as inhibition of cell growth incubated for 72 hrs by MTT assay; type: toxicity, cell-based
[7] = biological target: T1, von Hippel-Lindau disease tumor suppressor/Vascular endothelial growth factor receptor 2; test: PROTAC activity at VHL/VEGFR2 in human HGC-27 cells assessed as induction of VEGRF2 protein degradation at 1 uM incubated for 2 hrs by Western blot analysis; type: cell-based
[8] = biological target: T1, von Hippel-Lindau disease tumor suppressor/Vascular endothelial growth factor receptor 2; test: PROTAC activity at VHL/VEGFR2 in human HGC-27 cells assessed as induction of VEGRF2 protein degradation at 100 nM incubated for 2 hrs by Western blot analysis; type: cell-based

T1 sequence (P35968 20-1356 limits assumed): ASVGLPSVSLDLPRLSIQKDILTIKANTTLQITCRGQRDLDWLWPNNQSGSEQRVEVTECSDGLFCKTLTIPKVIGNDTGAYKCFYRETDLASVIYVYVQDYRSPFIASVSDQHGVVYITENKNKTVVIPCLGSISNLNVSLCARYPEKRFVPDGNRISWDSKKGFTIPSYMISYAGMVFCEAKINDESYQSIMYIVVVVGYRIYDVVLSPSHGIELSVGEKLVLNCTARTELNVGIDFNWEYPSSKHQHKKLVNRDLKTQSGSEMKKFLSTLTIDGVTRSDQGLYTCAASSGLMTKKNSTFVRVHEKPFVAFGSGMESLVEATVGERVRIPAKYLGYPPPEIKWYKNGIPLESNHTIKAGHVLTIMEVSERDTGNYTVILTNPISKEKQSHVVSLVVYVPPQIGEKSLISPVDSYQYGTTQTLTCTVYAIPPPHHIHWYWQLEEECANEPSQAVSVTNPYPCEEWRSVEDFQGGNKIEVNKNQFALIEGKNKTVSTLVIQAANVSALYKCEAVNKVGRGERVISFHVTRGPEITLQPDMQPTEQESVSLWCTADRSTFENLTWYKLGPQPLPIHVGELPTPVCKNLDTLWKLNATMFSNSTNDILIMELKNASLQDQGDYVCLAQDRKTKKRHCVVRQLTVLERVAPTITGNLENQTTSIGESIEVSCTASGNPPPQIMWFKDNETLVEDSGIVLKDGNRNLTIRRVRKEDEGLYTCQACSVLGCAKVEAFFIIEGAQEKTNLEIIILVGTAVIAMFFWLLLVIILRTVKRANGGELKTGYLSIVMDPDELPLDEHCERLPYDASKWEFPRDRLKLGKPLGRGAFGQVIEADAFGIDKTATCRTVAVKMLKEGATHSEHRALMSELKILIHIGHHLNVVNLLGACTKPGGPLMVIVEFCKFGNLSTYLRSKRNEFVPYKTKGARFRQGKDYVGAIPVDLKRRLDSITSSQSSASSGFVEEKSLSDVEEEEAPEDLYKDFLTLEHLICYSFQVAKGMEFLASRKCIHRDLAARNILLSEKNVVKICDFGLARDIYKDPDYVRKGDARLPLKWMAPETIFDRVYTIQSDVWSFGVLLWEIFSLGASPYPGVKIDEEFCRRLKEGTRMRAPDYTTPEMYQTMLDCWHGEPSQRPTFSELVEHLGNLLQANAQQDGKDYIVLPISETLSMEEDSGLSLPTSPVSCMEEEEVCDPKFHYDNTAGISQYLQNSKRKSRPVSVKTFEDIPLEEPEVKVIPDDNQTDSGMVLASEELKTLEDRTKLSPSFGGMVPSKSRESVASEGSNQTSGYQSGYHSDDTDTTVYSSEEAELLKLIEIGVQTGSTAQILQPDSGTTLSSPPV
T1 sequence (P40337 whole entry partner): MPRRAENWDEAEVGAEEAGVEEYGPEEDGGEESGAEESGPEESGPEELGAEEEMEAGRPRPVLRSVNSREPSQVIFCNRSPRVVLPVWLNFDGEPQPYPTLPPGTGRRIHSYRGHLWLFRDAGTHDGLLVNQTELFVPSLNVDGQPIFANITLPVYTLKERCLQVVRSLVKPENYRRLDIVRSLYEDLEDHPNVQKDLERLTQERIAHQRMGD
Vascular endothelial growth factor receptor 2, sequence (P35968 whole entry): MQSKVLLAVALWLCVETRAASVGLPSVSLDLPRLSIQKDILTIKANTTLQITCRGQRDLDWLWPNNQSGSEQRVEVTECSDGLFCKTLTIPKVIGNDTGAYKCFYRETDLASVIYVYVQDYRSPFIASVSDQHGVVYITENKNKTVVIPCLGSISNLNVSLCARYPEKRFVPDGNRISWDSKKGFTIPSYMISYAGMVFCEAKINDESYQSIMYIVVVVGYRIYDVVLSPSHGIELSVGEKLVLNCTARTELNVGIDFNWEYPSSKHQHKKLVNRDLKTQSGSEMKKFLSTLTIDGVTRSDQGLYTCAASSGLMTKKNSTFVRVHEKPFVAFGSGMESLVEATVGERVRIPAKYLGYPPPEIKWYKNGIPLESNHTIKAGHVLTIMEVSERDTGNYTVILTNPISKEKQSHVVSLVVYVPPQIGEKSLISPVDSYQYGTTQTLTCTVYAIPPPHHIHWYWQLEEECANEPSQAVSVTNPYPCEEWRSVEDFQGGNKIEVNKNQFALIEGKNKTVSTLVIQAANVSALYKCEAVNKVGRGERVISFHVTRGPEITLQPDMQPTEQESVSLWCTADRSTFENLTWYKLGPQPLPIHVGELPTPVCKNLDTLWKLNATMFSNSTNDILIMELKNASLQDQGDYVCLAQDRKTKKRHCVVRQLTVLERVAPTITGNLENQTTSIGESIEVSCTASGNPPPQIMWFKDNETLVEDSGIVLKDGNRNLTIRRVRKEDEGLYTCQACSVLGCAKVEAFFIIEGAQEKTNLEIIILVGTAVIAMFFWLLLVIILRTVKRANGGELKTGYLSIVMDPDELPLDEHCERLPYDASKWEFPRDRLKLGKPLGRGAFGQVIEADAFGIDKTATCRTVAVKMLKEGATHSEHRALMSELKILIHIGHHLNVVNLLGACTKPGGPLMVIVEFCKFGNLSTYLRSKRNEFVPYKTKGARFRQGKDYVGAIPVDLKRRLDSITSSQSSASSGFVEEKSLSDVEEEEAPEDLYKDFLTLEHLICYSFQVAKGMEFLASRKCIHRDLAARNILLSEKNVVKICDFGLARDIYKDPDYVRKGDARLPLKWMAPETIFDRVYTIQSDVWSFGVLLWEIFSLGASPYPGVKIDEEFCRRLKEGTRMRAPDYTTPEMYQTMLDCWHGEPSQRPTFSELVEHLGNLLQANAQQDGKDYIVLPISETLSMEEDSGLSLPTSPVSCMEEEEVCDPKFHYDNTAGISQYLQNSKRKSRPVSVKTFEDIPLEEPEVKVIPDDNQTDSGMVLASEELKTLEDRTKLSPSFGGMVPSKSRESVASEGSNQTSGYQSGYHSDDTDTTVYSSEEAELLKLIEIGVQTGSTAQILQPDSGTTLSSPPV

Compound | Activity [1] | pIC50 [2] | pIC50 [3] | IC50 at 72 h [4] | IC50 at 72 h [5] | IC50 at 72 h [6] | Activity [7] | Activity [8]
CC(=O)N[C@H](C(=O)N1C[C@H](O)C[C@H]1C(=O)NCc1ccc(-c2scnc2C)cc1)C(C)(C)C | inactive | – | – | – | – | – | – | –
Cc1ccc(NC(=O)Cn2cc(-c3ccc4c(NC(=O)c5ccc(N6CCNCC6)cc5)n[nH]c4c3)cn2)cc1C(F)(F)F | – | 9.38 | 5.60 | 3570 nM | 1700 nM | 1320 nM | – | –
NS(=O)(=O)OC[C@@H]1C[C@@H](n2ccc3c(N[C@H]4CCc5ccccc54)ncnc32)C[C@@H]1O | – | – | – | – | – | – | inactive | –
Cc1ccc(NC(=O)Cn2cc(-c3ccc4c(NC(=O)c5ccc(N)cc5)n[nH]c4c3)cn2)cc1C(F)(F)F | – | 8.57 | 5.67 | 25 nM | 110 nM | 2350 nM | – | inactive
